In paper PMC8192494 (European journal of medicinal chemistry, 2021):
Several values for one entry are separate records, joined by “and”; a condition that tells them apart may be missing. Equal values may be shown once.

Assays:
[1] = tested on: LNCaP, PC3 and DU145 prostate cancer cells; test: MTT antiproliferative activity, summarised over the three PCa cell lines; format: cell-based; conditions: Homo sapiens, read-out: IC50 range on different cell lines
[2] = tested on: PC3 (AR−) androgen-insensitive human prostate adenocarcinoma cells; test: MTT antiproliferative activity assay on PC3 cells; format: cell-based; conditions: read-out: IC50 PC3 (AR−), 48 h, concentration inhibiting cell growth by 50%
[3] = tested on: LNCaP (AR+) androgen-sensitive human prostate adenocarcinoma cells; test: MTT antiproliferative activity assay on LNCaP cells; format: cell-based; conditions: relative to cyproterone acetate
[4] = tested on: DHT-induced growth of LNCaP (AR+) PCa cells; test: Inhibition of dihydrotestosterone-induced cell proliferation of LNCaP PCa cells; conditions: 0.1 nM DHT, 48 h; for inhibition of growth induced by DHT: 0.125 μM dimer
[5] = target: isolated recombinant CYP3A4 (Homo sapiens, UniProt P08684); test: Equilibrium ligand binding to CYP3A4; conditions: for high spin: high spin content of ligand-bound CYP3A4, mean of three ± SD; for Kd, fold lower than for 14β: relative to 14β
[6] = tested on: TS-induced growth of LNCaP (AR+) PCa cells; test: Inhibition of testosterone-induced cell proliferation of LNCaP PCa cells; format: cell-based, human; conditions: 48 h; for reduction relative to the proliferative response induced by 0.1 nM TS: 1 μM dimer
[7] = tested on: LNCaP (AR+) PCa cells; conditions: read-out: IC50 LNCaP (AR+); MTT antiproliferative assay; cited from earlier work
[8] = tested on: PC3 (AR−) PCa cells; conditions: read-out: IC50 PC3 (AR−); MTT antiproliferative assay; cited from earlier work

Chain of isolated recombinant CYP3A4 (P08684 whole entry): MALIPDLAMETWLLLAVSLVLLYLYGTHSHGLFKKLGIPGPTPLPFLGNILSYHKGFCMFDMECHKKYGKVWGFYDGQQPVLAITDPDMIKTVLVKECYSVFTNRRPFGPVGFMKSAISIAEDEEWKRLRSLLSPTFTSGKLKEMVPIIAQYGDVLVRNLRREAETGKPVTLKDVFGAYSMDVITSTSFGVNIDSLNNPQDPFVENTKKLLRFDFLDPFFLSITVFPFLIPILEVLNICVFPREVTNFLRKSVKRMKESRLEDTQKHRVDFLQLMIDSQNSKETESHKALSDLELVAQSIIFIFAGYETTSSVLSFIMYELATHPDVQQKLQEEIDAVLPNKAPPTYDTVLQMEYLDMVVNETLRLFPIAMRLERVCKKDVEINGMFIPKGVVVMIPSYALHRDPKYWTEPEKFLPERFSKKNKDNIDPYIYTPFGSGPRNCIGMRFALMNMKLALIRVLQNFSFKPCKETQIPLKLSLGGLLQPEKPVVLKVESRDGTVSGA

For `C[C@]12CC[C@H]3[C@@H]([C@H]([C@H]4C=CC[C@H]5C(=O)OC(=O)[C@@H]45)CC4=CC(=O)CC[C@@]43C)[C@@H]1CC[C@@H]2O` [Compound 15, 4-(17β-hydroxy-4-androsten-3-one-7α-yl)-3a,4,7,7a-tetrahydro-isobenzofuran-1,3-dione], the IC50 [1] was 62.5 to 131 µM.
With `C=CC=C[C@@H]1CC2=CC(=O)CC[C@]2(C)[C@H]2CC[C@]3(C)[C@H](O)CC[C@H]3[C@H]12` [Compound 13α, 7α-(buta-1,3-dienyl)-4-androsten-17α-ol-3-one] the IC50 [2] was 31.5 µM and the “times more active than CPA (IC50 ratio)” value [3] was “about 4 times”.
With `C[C@]12CC[C@H]3[C@@H]([C@H](/C=C/C=C/C=C/[C@@H]4CC5=CC(=O)CC[C@]5(C)[C@H]5CC[C@]6(C)[C@@H](O)CC[C@H]6[C@H]45)CC4=CC(=O)CC[C@@]43C)[C@@H]1CC[C@@H]2O` (relative stereo) [Compound 14β, trans, trans,trans-1,6-bis-(17β-hydroxy-4-androsten-3-one-7α-yl)hexatriene] the “concentration at which 100% effective against DHT-induced cell proliferation” value [4] was 1 µM, the “inhibition of growth induced by DHT” value [4] was “at least 45%” and the “times more active than CPA (IC50 ratio)” value [3] was ~ 5 times. The high spin [5] was 49 ± 3%, the “concentration at which 100% effective against TS-induced cell proliferation” value ([6]; 0.1 nM TS) was 0.5 µM and the “inhibition of growth induced by TS” value ([6]; 0.125 μM dimer, 0.1 nM TS) was “at least 45%”. The “reduction relative to the proliferative response induced by 0.1 nM TS” value [6] was 104%.
`C=CC=C[C@@H]1CC2=CC(=O)CC[C@]2(C)[C@H]2CC[C@]3(C)[C@@H](O)CC[C@H]3[C@H]12` [Compound 13β, 7α-(buta-1,3-dienyl)-4-androsten-17β-ol-3-one] showed an IC50 [2] of 34.1 µM.
With `C[C@]12CC[C@H]3[C@@H]([C@H](/C=C/C=C/C=C/[C@@H]4CC5=CC(=O)CC[C@]5(C)[C@H]5CC[C@]6(C)[C@H](O)CC[C@H]6[C@H]45)CC4=CC(=O)CC[C@@]43C)[C@@H]1CC[C@H]2O` (relative stereo) [Compound 14α, trans, trans,trans-1,6-bis-(17α-hydroxy-4-androsten-3-one-7α-yl)hexatriene] the “concentration at which 100% effective against DHT-induced cell proliferation” value [4] was 1 µM, the “inhibition of growth induced by DHT” value [4] was “at least 45%” and the high spin [5] was 46 ± 3%. For the same compound, the “Kd, fold lower than for 14β” value [5] was ~ 4 fold, the “concentration at which 100% effective against TS-induced cell proliferation” value ([6]; 0.1 nM TS) was 0.25 µM and the “reduction relative to the proliferative response induced by 0.1 nM TS” value [6] was ~ 141%.
In the case of `C[C@]12CCC(=O)C=C1C[C@@H](/C=C/C=C/C=C/[C@@H]1CC3=CC(=O)CC[C@]3(C)[C@H]3CC[C@]4(C)C(=O)CC[C@H]4[C@H]13)[C@@H]1[C@@H]2CC[C@]2(C)C(=O)CC[C@@H]12` [Compound 14, trans, trans,trans-1,6-bis-(4-androsten-3,17-dione-7α-yl)hexatriene], the IC50 [1] is reported as 29 to 72.7 µM, the high spin [5] is reported as 36 ± 2% and the “Kd, fold lower than for 14β” value [5] is reported as ~ 4 fold.
For `C[C@]12CC[C@H]3[C@@H]([C@H](C/C=C/C[C@@H]4CC5=CC(=O)CC[C@]5(C)[C@H]5CC[C@]6(C)[C@@H](O)CC[C@H]6[C@H]45)CC4=CC(=O)CC[C@@]43C)[C@@H]1CC[C@@H]2O` [trans-10, reference compound], the high spin [5] was 65% and 65 ± 4%.
In the case of `C[C@]12CC[C@H]3[C@@H]([C@H](C/C=C\C[C@@H]4CC5=CC(=O)CC[C@]5(C)[C@H]5CC[C@]6(C)[C@@H](O)CC[C@H]6[C@H]45)CC4=CC(=O)CC[C@@]43C)[C@@H]1CC[C@@H]2O` [cis-10], the IC50 [7] is listed as 30.3 µM, the IC50 [8] is listed as 24.7 µM and the high spin [5] is listed as 99 ± 1%.
